The values below come from ChEMBL document CHEMBL5346923, “Novel pyridinium cationic pleuromutilin analogues overcoming bacterial multidrug resistance” (Eur J Med Chem, 2023).

Molecules are shown by their SMILES.

Assay [1] relates to Staphylococcus aureus. Kind of assay: Antibacterial activity against methicillin-resistant Staphylococcus aureus infected in rabbit RBC assessed as reduction in alpha-heamolysin at 0.5 times of MIC by absorbance based analysis. Type of assay: functional, Erythrocyte. Also on record: scale not given: the % may be the effect or the level left.
Assay [2] has as its system Staphylococcus aureus. Kind of assay: Antibacterial activity against methicillin-resistant Staphylococcus aureus infected in rabbit RBC assessed as reduction in alpha-heamolysin by absorbance based analysis. Type of assay: functional, organism-based. The settings on record: Erythrocyte.
Assay [3] concerns Staphylococcus aureus. Kind of assay: Antibacterial activity against methicillin-resistant Staphylococcus aureus infected in rabbit RBC assessed as reduction in alpha-heamolysin at 0.25 times of MIC by absorbance based analysis. Type of assay: functional, Erythrocyte. Also on record: scale not given: the % may be the effect or the level left.
For assay [4], the system named is Staphylococcus aureus. Kind of assay: Antibacterial activity against methicillin-resistant Staphylococcus aureus infected in rabbit RBC assessed as reduction in alpha-heamolysin at 1 times of MIC by absorbance based analysis. It is filed as functional, Erythrocyte. The arrangement: scale not given: the % may be the effect or the level left.

Take `C=C[C@]1(C)C[C@@H](OC(=O)CSc2cc[n+](CCCCCCC)cc2)[C@]2(C)[C@H](C)CC[C@]3(CCC(=O)[C@H]32)[C@@H](C)[C@@H]1O.[I-]`: the Activity in the assay on Staphylococcus aureus [1] is 34%; in the assay on Staphylococcus aureus [2], “Dose-Dependent Effect”; with Staphylococcus aureus [3] it was 25%; with Staphylococcus aureus [4], 93%.
